Measurements published in patent publication US5652353A, “DNAs encoding tumor necrosis factor-α muteins” (priority 1990, dated 1997).

Key:
[1] = tested on: U937 cells (predominantly but not exclusively p75-TNF-R); assay: Competition analysis: displacement of 125I-TNF-α by unlabeled mutant TNF on U937 cells; assay type: binding, human; settings: for Mean dpm: Table A
Method: (§1) Hep-2 [ATCC No. CCL 23], U937 [ATCC No. CRL 1593] and RAJI [ATCC No. CCL 86] cells were grown in RPMI 1640 medium, supplemented with 10% (v/v) inactivated .fetal calf serum, L-glutamine (2 mM), sodium pyruvate (1 mM), 2-mercaptoethanol (5×10^-5 M), 1% of a 100× mixture of non-essential amino acids [Gibro Laboratories, Paisley, GB] and gentamycine ([…]). The non-adherent cells (U937 and RAJI) were harvested after reaching a density of 1×10^6 cells/ml. For binding experiments, the adherent Hep-2 cells were grown to confluency, trypsinized, collected and seeded in large. Petri dishes (150 cm^2) at a density of 2.5×10^6 cells/ml. Subsequently, the dishes were placed in a CO2 -incubator overnight. Because Hep-2 cells are not strongly adherent, the cells could be harvested the same way as the non-adherent cells. Dulbecco's medium, supplemented with 10% inactivated newborn calf serum was used for L929 cell growth. […] A ten well dilution series of unlabeled mutant TNF ([…] to 0.004 μM) in concentration steps in multiples of 2 was set up in a microtiterplate. […] After addition of 2×10^6 cells, the total volume was 0.2 ml/well. The medium of incubation, reaction conditions and isolation of the cells were exactly the same as described above for the Scatchard analysis experiments. […] The following experimental data were used for such calculations: From each experiment shown in these tables, the KD value was calculated using the programm of Mc. Pherson et al. (1985).

[2] = tested on: Hep-2 cells (only carry p55-TNF-R); assay: Competition analysis: displacement of 125I-TNF-α by unlabeled mutant TNF on Hep-2 cells; assay type: binding, human; settings: for Mean dpm: Table C
Method: as §1

Hep-2 cells = assay type: cell-based, human; settings: in words; accuracy of assay a factor of 3
Method: (§2) The amount of protein was determined by the Biorad (Richmond, Calif., USA) protein dye reagent according to the instructions of the manufacturer. The purity of the TNF muteins was determined by SDS-PAGE. The cytotoxic activity on mouse L929 cells was determined using the standard L929 assay (Ruff and Gifford in "Lymphokines", ed. by E. Pick, Vol. 2, 235-275, Academic Press, 1981, Orlando, USA). The cytotoxicity assay on Hep-2 cells was performed the same way as the L929 assay with the only exception that cycloheximide (50 μg/ml) was added instead of actinomycin D.

mouse L929 cells = assay: Standard L929 cytotoxicity assay; assay type: cell-based; settings: relative to TNF-α
Method: as §2

human p75-TNF-R = assay: Filter binding competition of 125I-TNFα on purified p75-TNF-R from HL60 cells
Method: (§3) The filters were blocked with blocking buffer (50 mM Tris, 140 mM NaCl, 5 mM EDTA, 0.02% NaN3, 1% defatted milk powder) for 1.5 hours at room temperature. […] The filters were washed with blocking buffer (2× for 5 min.) and with H2 O (1× for 5 min.), air dried, and counted in a γ-counter.

human p55-TNF-R = assay: Filter binding competition of 125I-TNFα on purified p55-TNF-R from HL60 cells; settings: with respect to TNFα
Method: as §3

[3] = tested on: human p75-TNF-R versus human p55-TNF-R; assay: Selectivity factor S from competitive binding to p75-TNF-R and p55-TNF-R; settings: based on IC50 p75-TNF-R and IC50 p55-TNF-R (Table F, FIGS. 10A-10E)
Method: as §3
After three hours at room temperature the wells were thoroughly washed with PBS and counted in a γ-counter.

Ser^29 -TNFα: TNF-α mutein with serine substituted at position 29, SEQ ID No: 4
binding affinity for p75-TNF-R as share of its binding affinity to p55-TNF-R [1]: about 2% | Mean dpm ([1]; experiment 1, U937 cells, concentration of mutant 1 × 10^-6 [mol]): 632 dpm | Mean dpm ([1]; experiment 1, U937 cells, concentration of mutant 1 × 10^-9 [mol]): 1869 dpm | Mean dpm ([1]; experiment 1, U937 cells, concentration of mutant 1.25 × 10^-7 [mol]): 1200 dpm | Mean dpm ([1]; experiment 1, U937 cells, concentration of mutant 2 × 10^-6 [mol]): 533 dpm | Mean dpm ([1]; experiment 1, U937 cells, concentration of mutant 2 × 10^-9 [mol]): 1779 dpm | Mean dpm ([1]; experiment 1, U937 cells, concentration of mutant 3.2 × 10^-8 [mol]): 1415 dpm | Mean dpm ([1]; experiment 1, U937 cells, concentration of mutant 4 × 10^-9 [mol]): 1719 dpm | Mean dpm ([1]; experiment 1, U937 cells, concentration of mutant 5 × 10^-7 [mol]): 949 dpm | Mean dpm ([1]; experiment 1, U937 cells, concentration of mutant 6.4 × 10^-8 [mol]): 1320 dpm | Mean dpm ([1]; experiment 1, U937 cells, concentration of mutant 8 × 10^-9 [mol]): 1708 dpm | Mean dpm ([1]; experiment 1, U937 cells, concentration of mutant […] 10^-7 [mol]): 983 dpm | Mean dpm ([1]; experiment 1, U937 cells, concentration of mutant […] 10^-8 [mol]): 1575 dpm | Mean dpm ([1]; experiment 2, U937 cells, concentration of mutant 1 × 10^-6 [mol]): 263 dpm | Mean dpm ([1]; experiment 2, U937 cells, concentration of mutant 1.2 × 10^-7 [mol]): 413 dpm | Mean dpm ([1]; experiment 2, U937 cells, concentration of mutant 1.5 × 10^-8 [mol]): 541 dpm | Mean dpm ([1]; experiment 2, U937 cells, concentration of mutant 2 × 10^-6 [mol]): 238 dpm | Mean dpm ([1]; experiment 2, U937 cells, concentration of mutant 3 × 10^-8 [mol]): 572 dpm | Mean dpm ([1]; experiment 2, U937 cells, concentration of mutant 4 × 10^-9 [mol]): 635 dpm | Mean dpm ([1]; experiment 2, U937 cells, concentration of mutant 5 × 10^-7 [mol]): 319 dpm | Mean dpm ([1]; experiment 2, U937 cells, concentration of mutant 6 × 10^-8 [mol]): 489 dpm | Mean dpm ([1]; experiment 2, U937 cells, concentration of mutant 8 × 10^-9 [mol]): 603 dpm | Mean dpm ([1]; experiment 2, U937 cells, concentration of mutant […] 10^-7 [mol]): 380 dpm | reduction of binding affinity for p75-TNF-R ([1]; relative to its binding affinity to p55-TNF-R): approximately 50 fold | Mean dpm ([2]; experiment 1, Hep-2 cells, concentration of mutant 1 × 10^-6): 359 dpm | Mean dpm ([2]; experiment 1, Hep-2 cells, concentration of mutant 1 × 10^-9): 799 dpm | Mean dpm ([2]; experiment 1, Hep-2 cells, concentration of mutant 1.25 × 10^-7): 379 dpm | Mean dpm ([2]; experiment 1, Hep-2 cells, concentration of mutant 2 × 10^-6): 383 dpm | Mean dpm ([2]; experiment 1, Hep-2 cells, concentration of mutant 2 × 10^-9): 677 dpm | Mean dpm ([2]; experiment 1, Hep-2 cells, concentration of mutant 3.2 × 10^-8): 442 dpm | Mean dpm ([2]; experiment 1, Hep-2 cells, concentration of mutant 4 × 10^-9): 564 dpm | Mean dpm ([2]; experiment 1, Hep-2 cells, concentration of mutant 5 × 10^-7): 437 dpm | Mean dpm ([2]; experiment 1, Hep-2 cells, concentration of mutant 6.4 × 10^-8): 446 dpm | Mean dpm ([2]; experiment 1, Hep-2 cells, concentration of mutant 8 × 10^-9): 510 dpm | Mean dpm ([2]; experiment 1, Hep-2 cells, concentration of mutant […] 10^-7): 374 dpm | Mean dpm ([2]; experiment 1, Hep-2 cells, concentration of mutant […] 10^-8): 451 dpm | Mean dpm ([2]; experiment 2, Hep-2 cells, concentration of mutant 1 × 10^-6): 193 dpm | Mean dpm ([2]; experiment 2, Hep-2 cells, concentration of mutant 1.2 × 10^-7): 239 dpm | Mean dpm ([2]; experiment 2, Hep-2 cells, concentration of mutant 1.5 × 10^-8): 253 dpm | Mean dpm ([2]; experiment 2, Hep-2 cells, concentration of mutant 2 × 10^-6): 238 dpm | Mean dpm ([2]; experiment 2, Hep-2 cells, concentration of mutant 3 × 10^-8): 235 dpm | Mean dpm ([2]; experiment 2, Hep-2 cells, concentration of mutant 4 × 10^-9): 273 dpm | Mean dpm ([2]; experiment 2, Hep-2 cells, concentration of mutant 5 × 10^-7): 211 dpm | Mean dpm ([2]; experiment 2, Hep-2 cells, concentration of mutant 6 × 10^-8): 207 dpm | Mean dpm ([2]; experiment 2, Hep-2 cells, concentration of mutant 8 × 10^-9): 240 dpm | binding constant (KD) with Hep-2 cells compared with TNF-α ([2]; in words): almost the same as TNF-α | biological activity (specific activity) on Hep-2 cells (Hep-2 cells): largely retained | decrease of biological activity on L929 cells (factor) (mouse L929 cells): more than 100 | IC50 (human p75-TNF-R; competition with 125I-TNFα): 2.5 µg/mL | Decrease in Affinity (human p75-TNF-R; with respect to TNFα): 250 fold | Decrease in Affinity (human p55-TNF-R): 8.2 fold

Tyr^29 -TNFα: TNF-α mutein with tyrosine substituted at position 29, SEQ ID No: 6
selectivity factor S [3]: 110

Tyr^32 -TNFα: TNF-α mutein with tyrosine substituted at position 32, SEQ ID No: 10
selectivity factor S [3]: 90
